Results reported in patent US20260207578A1, “COMPOUND BASED ON SULFUR/OXYGEN SUBSTITUTED GLUTARIMIDE-BASED ISOINDOLINONE SKELETON AND USE THEREOF” (Gluetacs Therapeutics (Shanghai) Co., LTD., priority 2022, published 2026).

Columns and labels:
CCRF-CEM = experiment: Half inhibitory concentration (IC50) against tumor cells, Cell Counting Kit-8; type: cell-based; details: Homo sapiens, CCK-8, 96 h treatment, read-out: inhibitory activity (IC50, nM) against tumor cells proliferation
Description: (§1) The tumor cells used herein were cultured in a cell culture medium listed in table A at 37° C. in an incubator with 5% CO2.
(§2) After the cells were treated with the compounds of the present disclosure for a period of time, the cell viability detection reagent was added to the culture medium for cell viability assessment according to the instructions provided with the CCK-8 kit. […] The growth inhibition of the compounds of the present disclosure on cells was plotted by Prism Graphpad software, and the IC50 values of the compounds of the present disclosure were calculated therefrom.

Kasumi-1 = experiment: as above; type: cell-based; details: Homo sapiens, CCK-8, 96 h treatment, read-out: inhibitory activity (IC50, nM) against tumor cells proliferation
Description: as §1, §2

MV-4-11 = experiment: as above; type: cell-based; details: Homo sapiens, MV4-11, CCK-8, 96 h treatment, read-out: inhibitory activity (IC50, nM) against tumor cells proliferation
Description: as §1, §2

[1] = target: T1, human Cereblon WT GST-tagged protein (Homo sapiens, UniProt Q96SW2); experiment: CRBN-binding affinity, HTRF (CEREBLON BINDING kit); details: displacement of Thalidomide-Re reagent, 3 hours at room temperature
T1 construct: purchased CISBIO 64BDCRBNPEH
In short: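 Compounds displace a thalidomide-Re tracer from GST-tagged human Cereblon WT, detected with an Eu-labelled anti-GST antibody by time-resolved fluorescence. Signal at 620 nm was normalised against solvent and blank controls.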

IKZF1 = target: T2, IKZF1 (Homo sapiens, UniProt Q13422+Q96SW2); experiment: Western-blot assay, substrate protein in hPBMCs; type: cell-based; details: hPBMC cells, 24 hours, tested at 50 nM and 500 nM, table does not say which
T2 construct: endogenous in cells; host or cells: human PBMCs (Milecell Biotechnologies)
In short: (§3)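 hPBMCs (1×10^6 cells/mL) exposed 24 h to compound at 50 nM and 500 nM, lysed, and probed by Western blot. Band grayscale normalized to internal control gives % protein remaining versus DMSO; DC50 from concentration-response fit at half DMSO band intensity.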

GSPT1 = target: T3, GSPT1 (Homo sapiens, UniProt P15170+Q96SW2); experiment: Western-blot assay, substrate protein in hPBMCs; type: cell-based; details: hPBMC cells, 24 hours, tested at 50 nM and 500 nM, table does not say which
T3 construct: endogenous in cells; host or cells: human PBMCs (Milecell Biotechnologies)
In short: (§4)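 Thawed hPBMCs, 1×10^6 cells/mL; 24 h compound; RIPA + phosphatase inhibitor lysis, BCA-normalised loading, SDS-PAGE, NC transfer, immunodetection. Bands vs internal control → % remaining; DC50 = concentration at 50% of DMSO band intensity.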

IKZF2 = target: T4, IKZF2 (Homo sapiens, UniProt Q96SW2+Q9UKS7); experiment: Western-blot assay, substrate protein in hPBMCs; type: cell-based; details: hPBMC cells, 24 hours, tested at 50 nM and 500 nM, table does not say which
T4 construct: endogenous in cells; host or cells: human PBMCs (Milecell Biotechnologies)
In short: as §4

CK1α = target: T5, CK1α (Homo sapiens, UniProt P48729+Q96SW2); experiment: Western-blot assay, substrate protein in hPBMCs; type: cell-based; details: hPBMC cells, 24 hours, tested at 50 nM and 500 nM, table does not say which
T5 construct: endogenous in cells; host or cells: human PBMCs (Milecell Biotechnologies)
In short: as §4

JEKO-1 = experiment: Half inhibitory concentration (IC50) against tumor cells, Cell Counting Kit-8; type: cell-based; details: Homo sapiens, CCK-8, 96 h treatment, read-out: inhibitory activity (IC50, nM) against tumor cells proliferation
Description: as §1, §2

IKZF3 = target: T6, IKZF3 (Homo sapiens, UniProt Q96SW2+Q9UKT9); experiment: Western-blot assay, substrate protein in hPBMCs; type: cell-based; details: hPBMC cells, 24 hours, tested at 50 nM and 500 nM, table does not say which
T6 construct: endogenous in cells; host or cells: human PBMCs (Milecell Biotechnologies)
In short: as §3

Wee1 = target: T7, Wee1 (Homo sapiens, UniProt P30291+Q96SW2); experiment: Western-blot assay, substrate protein in hPBMCs; type: cell-based; details: hPBMC cells, 24 hours, tested at 50 nM and 500 nM, table does not say which
T7 construct: endogenous in cells; host or cells: human PBMCs (Milecell Biotechnologies)
In short: as §4

THP-1 = experiment: Half inhibitory concentration (IC50) against tumor cells, Cell Counting Kit-8; type: cell-based; details: Homo sapiens, CCK-8, 96 h treatment, read-out: inhibitory activity (IC50, nM) against tumor cells proliferation
Description: as §1, §2

CAL-62 = experiment: as above; type: cell-based; details: Homo sapiens, CCK-8, 96 h treatment, read-out: inhibitory activity (IC50, nM) against tumor cells proliferation
Description: as §1, §2

MM.1S = experiment: as above; type: cell-based; details: Homo sapiens, MM1.S, CCK-8, 96 h treatment, read-out: inhibitory activity (IC50, nM) against tumor cells proliferation
Description: as §1, §2

Daudi = experiment: as above; type: cell-based; details: Homo sapiens, CCK-8, 96 h treatment, read-out: inhibitory activity (IC50, nM) against tumor cells proliferation
Description: as §1, §2

MDA-MB-231 = experiment: as above; type: cell-based; details: Homo sapiens, CCK-8, 96 h treatment, read-out: inhibitory activity (IC50, nM) against tumor cells proliferation
Description: as §1, §2

MM.1R = experiment: as above; type: cell-based; details: Homo sapiens, CCK-8, 96 h treatment, read-out: inhibitory activity (IC50, nM) against tumor cells proliferation
Description: as §1, §2

T6 sequence (Q9UKT9 whole entry): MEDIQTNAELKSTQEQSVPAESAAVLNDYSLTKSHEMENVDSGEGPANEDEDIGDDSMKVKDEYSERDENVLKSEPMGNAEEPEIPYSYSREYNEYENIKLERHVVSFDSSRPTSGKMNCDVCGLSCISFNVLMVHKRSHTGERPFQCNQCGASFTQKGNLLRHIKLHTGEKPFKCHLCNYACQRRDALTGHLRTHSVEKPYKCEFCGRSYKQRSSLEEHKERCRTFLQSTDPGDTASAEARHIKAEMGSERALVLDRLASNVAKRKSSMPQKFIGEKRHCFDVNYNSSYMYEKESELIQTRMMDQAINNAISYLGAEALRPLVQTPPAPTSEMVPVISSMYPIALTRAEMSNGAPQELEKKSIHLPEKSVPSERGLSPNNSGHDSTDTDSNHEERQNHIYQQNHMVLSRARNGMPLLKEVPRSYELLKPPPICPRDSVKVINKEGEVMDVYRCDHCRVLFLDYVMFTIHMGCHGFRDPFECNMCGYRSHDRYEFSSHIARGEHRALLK
T6 sequence (Q96SW2 whole entry): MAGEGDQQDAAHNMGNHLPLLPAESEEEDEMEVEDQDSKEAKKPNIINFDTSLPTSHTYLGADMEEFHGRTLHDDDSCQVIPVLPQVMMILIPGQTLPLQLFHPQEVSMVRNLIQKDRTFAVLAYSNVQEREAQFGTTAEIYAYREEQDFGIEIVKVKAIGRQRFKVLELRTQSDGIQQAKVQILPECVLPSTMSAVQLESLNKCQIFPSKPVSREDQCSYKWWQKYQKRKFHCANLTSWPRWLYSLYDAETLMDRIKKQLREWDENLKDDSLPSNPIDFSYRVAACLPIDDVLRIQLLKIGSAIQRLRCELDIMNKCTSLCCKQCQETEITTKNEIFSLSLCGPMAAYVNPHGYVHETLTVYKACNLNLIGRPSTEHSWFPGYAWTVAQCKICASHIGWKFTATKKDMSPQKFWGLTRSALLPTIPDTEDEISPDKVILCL
T6 sequence (Q16531 whole entry partner): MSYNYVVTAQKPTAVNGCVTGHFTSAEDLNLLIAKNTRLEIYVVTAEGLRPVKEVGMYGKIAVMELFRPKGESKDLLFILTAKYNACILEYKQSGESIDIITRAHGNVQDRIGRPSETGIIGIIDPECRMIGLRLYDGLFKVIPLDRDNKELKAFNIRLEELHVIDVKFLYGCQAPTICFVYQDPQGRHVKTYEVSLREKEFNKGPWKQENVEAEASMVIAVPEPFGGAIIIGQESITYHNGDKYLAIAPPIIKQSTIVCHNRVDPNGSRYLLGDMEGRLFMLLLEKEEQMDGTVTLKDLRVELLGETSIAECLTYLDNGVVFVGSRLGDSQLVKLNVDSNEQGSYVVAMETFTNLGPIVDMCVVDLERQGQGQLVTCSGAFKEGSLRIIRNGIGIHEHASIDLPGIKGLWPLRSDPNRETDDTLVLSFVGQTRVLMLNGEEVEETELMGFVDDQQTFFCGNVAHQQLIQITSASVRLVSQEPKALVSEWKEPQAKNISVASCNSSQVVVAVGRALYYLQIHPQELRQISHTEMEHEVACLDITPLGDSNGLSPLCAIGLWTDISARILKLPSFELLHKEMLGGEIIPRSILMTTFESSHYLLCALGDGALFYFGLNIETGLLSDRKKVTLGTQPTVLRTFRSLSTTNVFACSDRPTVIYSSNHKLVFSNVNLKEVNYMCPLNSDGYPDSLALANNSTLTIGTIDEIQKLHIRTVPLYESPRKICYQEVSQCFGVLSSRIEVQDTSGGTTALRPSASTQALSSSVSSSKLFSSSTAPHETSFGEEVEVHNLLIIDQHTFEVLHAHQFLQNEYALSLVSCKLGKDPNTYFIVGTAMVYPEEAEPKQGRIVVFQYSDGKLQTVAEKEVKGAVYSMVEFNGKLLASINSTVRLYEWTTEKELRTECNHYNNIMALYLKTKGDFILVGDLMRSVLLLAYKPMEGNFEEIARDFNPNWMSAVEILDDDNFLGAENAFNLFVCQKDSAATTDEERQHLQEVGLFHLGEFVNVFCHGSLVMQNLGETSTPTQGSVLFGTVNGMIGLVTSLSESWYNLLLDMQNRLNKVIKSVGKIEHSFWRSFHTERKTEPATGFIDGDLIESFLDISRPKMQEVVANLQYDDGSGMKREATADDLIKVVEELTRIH
T5 sequence (P48729 whole entry): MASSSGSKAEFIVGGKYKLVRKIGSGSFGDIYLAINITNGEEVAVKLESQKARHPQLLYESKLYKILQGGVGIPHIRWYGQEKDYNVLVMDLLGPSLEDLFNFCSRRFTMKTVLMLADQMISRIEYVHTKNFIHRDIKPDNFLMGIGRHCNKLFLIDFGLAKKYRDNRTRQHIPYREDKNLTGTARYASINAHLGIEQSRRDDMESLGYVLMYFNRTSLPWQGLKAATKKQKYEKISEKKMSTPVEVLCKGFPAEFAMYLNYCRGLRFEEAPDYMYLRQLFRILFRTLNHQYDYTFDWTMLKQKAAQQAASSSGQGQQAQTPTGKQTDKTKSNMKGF
T5 sequence (Q96SW2 whole entry): as the sequence (Q96SW2 whole entry) above
T5 sequence (Q16531 whole entry partner): as the sequence (Q16531 whole entry partner) above
T3 sequence (P15170 whole entry): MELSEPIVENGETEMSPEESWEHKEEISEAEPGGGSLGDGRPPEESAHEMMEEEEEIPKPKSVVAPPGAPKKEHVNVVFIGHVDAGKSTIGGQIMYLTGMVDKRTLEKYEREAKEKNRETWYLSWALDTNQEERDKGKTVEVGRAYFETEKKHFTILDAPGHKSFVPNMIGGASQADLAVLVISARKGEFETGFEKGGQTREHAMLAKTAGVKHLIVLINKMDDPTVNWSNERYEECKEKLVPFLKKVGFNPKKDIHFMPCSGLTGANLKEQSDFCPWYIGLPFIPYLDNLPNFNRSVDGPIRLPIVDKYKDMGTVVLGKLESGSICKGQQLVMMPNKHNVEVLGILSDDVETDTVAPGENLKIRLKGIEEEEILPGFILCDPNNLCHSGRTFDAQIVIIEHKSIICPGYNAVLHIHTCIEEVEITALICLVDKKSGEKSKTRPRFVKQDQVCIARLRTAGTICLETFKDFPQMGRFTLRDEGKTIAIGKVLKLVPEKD
T3 sequence (Q96SW2 whole entry): as the sequence (Q96SW2 whole entry) above
T3 sequence (Q16531 whole entry partner): as the sequence (Q16531 whole entry partner) above
T1 sequence (Q96SW2 whole entry): as the sequence (Q96SW2 whole entry) above
T2 sequence (Q13422 whole entry): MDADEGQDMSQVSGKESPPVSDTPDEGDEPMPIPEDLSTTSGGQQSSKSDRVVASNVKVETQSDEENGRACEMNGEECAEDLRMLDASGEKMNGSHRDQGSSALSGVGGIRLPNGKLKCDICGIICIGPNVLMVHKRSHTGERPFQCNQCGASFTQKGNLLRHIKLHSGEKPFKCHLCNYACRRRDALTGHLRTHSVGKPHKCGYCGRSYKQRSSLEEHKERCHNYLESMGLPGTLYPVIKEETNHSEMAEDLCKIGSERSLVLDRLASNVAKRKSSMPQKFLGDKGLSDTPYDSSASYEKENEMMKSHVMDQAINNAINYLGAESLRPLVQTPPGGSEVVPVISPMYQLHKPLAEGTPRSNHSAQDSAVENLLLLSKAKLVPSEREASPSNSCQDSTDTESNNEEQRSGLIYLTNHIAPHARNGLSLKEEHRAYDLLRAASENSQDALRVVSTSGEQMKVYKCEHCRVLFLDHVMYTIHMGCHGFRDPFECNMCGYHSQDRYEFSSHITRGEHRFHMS
T2 sequence (Q96SW2 whole entry): as the sequence (Q96SW2 whole entry) above
T2 sequence (Q16531 whole entry partner): as the sequence (Q16531 whole entry partner) above
T4 sequence (Q9UKS7 whole entry): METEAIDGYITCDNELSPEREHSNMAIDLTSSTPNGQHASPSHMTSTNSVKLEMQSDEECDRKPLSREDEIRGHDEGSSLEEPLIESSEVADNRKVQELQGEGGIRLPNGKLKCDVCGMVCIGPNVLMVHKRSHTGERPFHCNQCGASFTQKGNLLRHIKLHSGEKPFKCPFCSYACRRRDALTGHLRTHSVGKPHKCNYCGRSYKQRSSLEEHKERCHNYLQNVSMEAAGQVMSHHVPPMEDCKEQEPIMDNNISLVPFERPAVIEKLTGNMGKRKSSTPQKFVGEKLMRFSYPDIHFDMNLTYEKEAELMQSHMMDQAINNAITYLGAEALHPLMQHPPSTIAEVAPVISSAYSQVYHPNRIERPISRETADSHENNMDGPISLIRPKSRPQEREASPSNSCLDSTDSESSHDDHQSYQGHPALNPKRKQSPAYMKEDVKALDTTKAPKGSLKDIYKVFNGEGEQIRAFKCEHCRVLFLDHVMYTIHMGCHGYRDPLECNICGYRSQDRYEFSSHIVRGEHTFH
T4 sequence (Q96SW2 whole entry): as the sequence (Q96SW2 whole entry) above
T4 sequence (Q16531 whole entry partner): as the sequence (Q16531 whole entry partner) above

Compound | IC50 (CCRF-CEM) | IC50 (Kasumi-1) | IC50 (MV-4-11) | IC50 [1] | IC50 (JEKO-1) | IC50 (THP-1) | IC50 (CAL-62) | IC50 (MM.1S) | IC50 (Daudi) | IC50 (MDA-MB-231) | IC50 (MM.1R) | substrate protein remaining % (IKZF1) | substrate protein remaining % (GSPT1) | substrate protein remaining % (IKZF2) | substrate protein remaining % (CK1α) | substrate protein remaining % (IKZF3) | substrate protein remaining % (Wee1)
O=C1CCC(N2Cc3cc(SC4CN(C(c5ccccc5F)c5ccccc5F)C4)ccc3C2=O)C(=O)N1 (centres unmarked) [GT-06758, 3-(5-((1-(bis(2-fluorophenyl)methyl)azetidin-3-yl)thio)-1-oxoisoindolin-2-yl)piperidine-2,6-dione] | 50 to 100 nM | 100 to 500 nM | 50 to 100 nM | < 500 nM |  |  |  |  |  |  |  | A (0%≤ substrate protein remaining % ≤80%) | A (0%≤ substrate protein remaining % ≤80%) | A (0%≤ substrate protein remaining % ≤80%) |  |  | 
O=C1CCC(N2Cc3cc(OC4CN(Cc5ccccc5-c5ccc(Cl)cc5)C4)ccc3C2=O)C(=O)N1 (centres unmarked) [GT-03363, 3-(5-((1-((4′-chloro-[1,1′-biphenyl]-2-yl)methyl)azetidin-3-yl)oxy)-1-oxoisoindolin-2-yl)piperidine-2,6-dione] | 100 to 500 nM |  |  | 500 to 1000 nM | 100 to 500 nM |  |  |  |  |  |  | A (0%≤ substrate protein remaining % ≤80%) | A (0%≤ substrate protein remaining % ≤80%) |  | A (0%≤ substrate protein remaining % ≤80%) | A (0%≤ substrate protein remaining % ≤80%) | A (0%≤ substrate protein remaining % ≤80%)
CC1(C)CCC(CN2CCC(Sc3ccc4c(c3)CN(C3CCC(=O)NC3=O)C4=O)C2)=C(c2ccc(Cl)cc2)C1 (centres unmarked) [GT-04245, 3-(5-((1-((4′-chloro-5,5-dimethyl-3,4,5,6-tetrahydro-[1,1′-biphenyl]-2-yl)methyl)pyrrolidin-3-yl)thio)-1-oxoisoindolin-2-yl)piperidine-2,6-dione] |  |  |  | < 500 nM |  | 500 to 1000 nM |  |  |  |  |  |  | A (0%≤ substrate protein remaining % ≤80%) | A (0%≤ substrate protein remaining % ≤80%) |  |  | 
O=C1CCC(N2Cc3cc(SC4CCN(C(c5ccccc5)c5ccccc5)CC4(F)F)ccc3C2=O)C(=O)N1 (centres unmarked) [GT-06926, 3-(5-((1-benzhydryl-3,3-difluoropiperidin-4-yl)thio)-1-oxoisoindolin-2-yl)piperidine-2,6-dione] | 50 to 100 nM | 100 to 500 nM | 10 to 50 nM | 1000 to 1900 nM |  |  |  |  |  |  |  | A (0%≤ substrate protein remaining % ≤80%) | A (0%≤ substrate protein remaining % ≤80%) | A (0%≤ substrate protein remaining % ≤80%) | A (0%≤ substrate protein remaining % ≤80%) | A (0%≤ substrate protein remaining % ≤80%) | A (0%≤ substrate protein remaining % ≤80%)
O=C1CCC(N2Cc3cc(OC4CCN(C(=O)c5ccccc5-c5ccc(Cl)cc5)CC4)ccc3C2=O)C(=O)N1 (centres unmarked) [GT-06204, 3-(5-((1-(4′-chloro-[1,1′-biphenyl]-2-carbonyl)piperidin-4-yl)oxy)-1-oxoisoindolin-2-yl)piperidine-2,6-dione] |  |  |  | < 500 nM |  |  |  | 10 to 50 nM |  |  |  |  | A (0%≤ substrate protein remaining % ≤80%) | A (0%≤ substrate protein remaining % ≤80%) | A (0%≤ substrate protein remaining % ≤80%) | A (0%≤ substrate protein remaining % ≤80%) | 
O=C1CCC(N2Cc3cc(SC4CCN(Cc5ccccc5-c5ccc(Cl)cc5)CC4)ccc3C2=O)C(=O)N1 (centres unmarked) [GT-03357, 3-(5-((1-((4′-chloro-[1,1′-biphenyl]-2-yl)methyl)piperidin-4-yl)thio)-1-oxoisoindolin-2-yl)piperidine-2,6-dione] | 100 to 500 nM |  |  |  |  |  |  |  | 100 to 500 nM |  |  |  | A (0%≤ substrate protein remaining % ≤80%) |  |  | A (0%≤ substrate protein remaining % ≤80%) | 
Nc1cccc2c1C(=O)N(C1CCC(=O)NC1=O)C2=O (centres unmarked) [pomalidomide, reference compound] | > 10000 nM | > 10000 nM | > 10000 nM |  | > 10000 nM | > 10000 nM | > 10000 nM | 500 to 1000 nM | > 10000 nM | > 10000 nM | > 10000 nM |  |  |  |  |  | 

Continued, in another order:

IC50 (CCRF-CEM) | IC50 (Kasumi-1) | IC50 (MV-4-11) | IC50 [1] | IC50 (JEKO-1) | IC50 (THP-1) | IC50 (CAL-62) | IC50 (MM.1S) | IC50 (Daudi) | IC50 (MDA-MB-231) | IC50 (MM.1R) | Compound | substrate protein remaining % (IKZF1) | substrate protein remaining % (GSPT1) | substrate protein remaining % (IKZF2) | substrate protein remaining % (CK1α) | substrate protein remaining % (IKZF3) | substrate protein remaining % (Wee1)
500 to 1000 nM |  | 100 to 500 nM |  |  |  |  |  |  |  |  | O=C1CCC(N2Cc3cc(SC4CCN(Cc5ccccc5-c5ccc(Cl)cc5)CC4(F)F)ccc3C2=O)C(=O)N1 (centres unmarked) [GT-06924, 3-(5-((1-((4′-chloro-[1,1′-biphenyl]-2-yl)methyl)-3,3-difluoropiperidin-4-yl)thio)-1-oxoisoindolin-2-yl)piperidine-2,6-dione] | A (0%≤ substrate protein remaining % ≤80%) | A (0%≤ substrate protein remaining % ≤80%) |  | A (0%≤ substrate protein remaining % ≤80%) |  | 
 |  | 10 to 50 nM | 1000 to 1900 nM |  |  |  |  |  |  |  | CC1(C)CCC(CN2CCC3(CC2)CC(Sc2ccc4c(c2)CN(C2CCC(=O)NC2=O)C4=O)C3)=C(c2ccc(Cl)cc2)C1 (centres unmarked) [GT-06873, 3-(5-((7-((4′-chloro-5,5-dimethyl-3,4,5,6-tetrahydro-[1,1′-biphenyl]-2-yl)methyl)-7-azaspiro[3.5]nonan-2-yl)thio)-1-oxoisoindolin-2-yl)piperidine-2,6-dione] | A (0%≤ substrate protein remaining % ≤80%) | A (0%≤ substrate protein remaining % ≤80%) | A (0%≤ substrate protein remaining % ≤80%) | A (0%≤ substrate protein remaining % ≤80%) | A (0%≤ substrate protein remaining % ≤80%) | A (0%≤ substrate protein remaining % ≤80%)
500 to 1000 nM |  |  | 500 to 1000 nM |  |  | 100 to 500 nM |  |  |  |  | CC1(C)CCC(CN2CCC(Sc3ccc4c(c3)CN(C3CCC(=O)NC3=O)C4=O)CC2)=C(c2ccc(Cl)cc2)C1 (centres unmarked) [GT-03462, 3-(5-((1-((4′-chloro-5,5-dimethyl-3,4,5,6-tetrahydro-[1,1′-biphenyl]-2-yl)methyl)piperidin-4-yl)thio)-1-oxoisoindolin-2-yl)piperidine-2,6-dione] |  | A (0%≤ substrate protein remaining % ≤80%) |  |  |  | A (0%≤ substrate protein remaining % ≤80%)
10 to 50 nM |  |  | < 500 nM |  | 100 to 500 nM | 10 to 50 nM |  |  |  |  | O=C1CCC(N2Cc3cc(SC4CN(C(=O)c5ccccc5-c5ccc(Cl)cc5)C4)ccc3C2=O)C(=O)N1 (centres unmarked) [GT-03892, 3-(5-((1-(4′-chloro-[1,1′-biphenyl]-2-carbonyl)azetidin-3-yl)thio)-1-oxoisoindolin-2-yl)piperidine-2,6-dione] | A (0%≤ substrate protein remaining % ≤80%) | A (0%≤ substrate protein remaining % ≤80%) | A (0%≤ substrate protein remaining % ≤80%) |  | A (0%≤ substrate protein remaining % ≤80%) | A (0%≤ substrate protein remaining % ≤80%)
 |  |  | < 500 nM |  |  |  | 10 to 50 nM |  |  |  | O=C1CCC(N2Cc3cc(SC4CCN(C(=O)c5ccccc5-c5ccc(Cl)cc5)CC4)ccc3C2=O)C(=O)N1 (centres unmarked) [GT-06182, 3-(5-((1-(4′-chloro-[1,1′-biphenyl]-2-carbonyl)piperidin-4-yl)thio)-1-oxoisoindolin-2-yl)piperidine-2,6-dione] | A (0%≤ substrate protein remaining % ≤80%) | A (0%≤ substrate protein remaining % ≤80%) |  | A (0%≤ substrate protein remaining % ≤80%) | A (0%≤ substrate protein remaining % ≤80%) | A (0%≤ substrate protein remaining % ≤80%)
